In patent US6686345B2, “DNA-cleaving antitumor agents” (Research Development Foundation, priority 1998, dated 2004):
“Also recorded” adds a separate entry of the source.

Legend:
[1] = Stability of heterocyclic salts in methanol (CD3OD) monitored by NMR; settings: solution in CD3OD monitored by NMR
From the text: The stability of solutions of these salts in CD3OD can be monitored by NMR.

supercoiled plasmid DNA = assay: DNA cleavage of supercoiled plasmid DNA by aza-enediyne heterocycles (thiazolium and benzothiazolium salts); format: biochemical; settings: 50 μM bp DNA, TRIS pH 8.0, 24 hrs at 37° C.; for DNA Cleavage 100 μM: 100 μM compound; for DNA Cleavage 1 mM: 1 mM compound
Experimental: The DNA cleavage efficiency of aza-enediyne heterocycles is determined by incubating the azaenediynes with supercoiled plasmid DNA. The supercoiled DNA was diluted to 50 μM bp in 50 mM TRIS buffer at pH 8.0. […] DNA topoisomers were separated by electrophoresis (0.8% agarose, 1× TBE, 82V, 1 hr 10 min) and stained with ethidium bromide (0.25 μg/mL) and images were analyzed by phosphorimger.
(§1) The normalized percent cleavage of DNA is determined as: [formula]
DNA cleavage normalized for the small amount (10-25%) of nicked relaxed DNA in control samples (DMSO-only treated DNA) is reported in Table 6.

A549 cancer cells = assay: In vitro cancer cell cytotoxicity of pyridinium salts, A549; format: cell-based; settings: for IC50: Homo sapiens, A549 cells, growth inhibition
From the text: (§2) The 2-ethynyl-1-prop-2-ynyl-pyridinium triflate salt has less activity in the in vitro cytotoxicity assay, perhaps due to the instability of this compound in nucleophilic solvents. The IC50 (50% Inhibition Concentration) is defined as the test compound concentration where the increase from time 0 in the number or mass of treated cells is only 50% as much as the corresponding increase in the vehicle-control at the end of experiment.

MCF-7 cancer cells = assay: In vitro cancer cell cytotoxicity of pyridinium salts, MCF-7; format: cell-based; settings: for IC50: Homo sapiens, MCF7, MCF-7 cells, growth inhibition
From the text: as §2

[2] = tested on: supercoiled ΦX174 plasmid DNA; assay: DNA cleavage by 2-alkynyl pyridinium triflate salts; format: biochemical, ΦX174 Phage; settings: for Normalized Percent Cleavage of ΦX174 Phage (RF-1) DNA: 24 hrs at 37° C., pH 8.0
Experimental: as §1
The DNA cleavage efficiency of these azaenediyne heterocycles was determined by incubation with aqueous solutions of supercoiled ΦX174 plasmid DNA. The supercoiled DNA was diluted to 50 μM bp in 50 mM TRIS pH 8.0. The reaction mixtures containing compound and 13% v/v DMSO-d6 were incubated for 24 hrs at 37° C. DNA topoisomers were separated by agarose gel electrophoresis (1 X TBE, 90V, 1 hr), stained with ethidium bromide (0.25 μg/mL), and the images were analyzed on a fluorimager. DNA cleavage results are reported as normalized percent cleavage in Table 7 as for the thiazolium and benzothiazolium salts in Example 8.

Supercoiled DNA = assay: DNA cleavage by heterocyclic variants (KeAZB series); format: biochemical
Experimental: The gel depicted in FIG. 3 represents the results of the DNA cleavage experiment with KeAZB002. Supercoiled DNA (50 uM in 50 mM TRIS phosphate buffer, pH 8) was incubated with 0 (lanes 1, 5), 1 (lanes 2, 6), 100 (lanes 3, 7), or 1000 (lane 4) uM of KeAZB002 for 24 hours at 20° C. Samples for lanes 5-8 were loaded onto the agarose gel, whereas samples for lanes 1-4 were heated at 70° C. for 90 sec. prior to loading onto the gel. After electrophoresis at 60 V for 2 hrs, the DNA products were visualized with ethidium bromide staining and UV transillumination.

[3] = tested on: various cancer cell lines; assay: In vitro cytotoxicity of KeAZB002 on various cancer cell lines; format: cell-based; settings: variety of cancer cell types, FIG. 16
[4] = Stability of KeAZB002 in aqueous solution; format: physicochemical
[5] = tested on: A549 non-small cell lung cancer cells; assay: In vivo evaluation in SCID mice implanted with A549 cells

In the case of C#CC[n+]1ccsc1C#Cc1ccccc1 [drawing 119], the “Stability in MeOH (Initial Decomposition)” value (shortened to “Stability in MeOH”) [1] is reported as “˜24 hr”, the “DNA Cleavage 100 μM” value (supercoiled plasmid DNA) is reported as 76% and the “DNA Cleavage 1 mM” value (supercoiled plasmid DNA) is reported as 100%.
With C#CC[n+]1ccccc1C#C [drawing 125, 1-prop-2-ynyl-2-ethynyl-pyridinium triflate] the “growth inhibition of A549 cells (in words)” value (A549 cancer cells; A549) was “less activity”, the “growth inhibition of MCF-7 cells (in words)” value (MCF-7 cancer cells; MCF-7) was “less activity” and the “Normalized Percent Cleavage of ΦX174 Phage (RF-1) DNA” value (“Normalized Percent Cleavage” for short) ([2]; 1 μM) was 12%. For the same compound, the “Normalized Percent Cleavage” value ([2]; 10 μM) was 39%, the “Normalized Percent Cleavage” value ([2]; 50 μM) was 77% and the “Normalized Percent Cleavage” value ([2]; 100 μM) was 85%.
For C[n+]1c(C#Cc2ccccc2)sc2ccccc21, the “Stability in MeOH” value [1] was 10 to 15 min and the “DNA Cleavage 1 mM” value (supercoiled plasmid DNA) was 96%.
For C#CC[n+]1ccccc1CCc1ccccc1 [drawing 128, 1-prop-2-ynyl-2-phenethyl-pyridinium triflate], the “Normalized Percent Cleavage” value ([2]; 1 μM) was 2%, the “Normalized Percent Cleavage” value ([2]; 10 μM) was 4% and the “Normalized Percent Cleavage” value ([2]; 50 μM) was 10%. The “Normalized Percent Cleavage” value ([2]; 100 μM) was 13% and the “DNA cleavage (in words)” value ([2]; ΦX174 DNA, pyridinium series) was “does not cleave DNA to any appreciable extent”.
In the case of C[n+]1ccsc1C#Cc1ccccc1, the “DNA Cleavage 1 mM” value (supercoiled plasmid DNA) is reported as 27%.
In the case of C#CC[n+]1ccccc1C#Cc1ccc(C(F)(F)F)cc1 [drawing 131], the IC50 (A549 cancer cells) is reported as 9.8 µM and the IC50 (MCF-7 cancer cells) is reported as 10 µM.
For C#CC[n+]1ccccc1C#Cc1ccccc1.O=S(=O)([O-])C(F)(F)F [KeAZB009, N-propargyl-2-phenylethynylpyridiniumium triflate], the “DNA cleavage (in words)” value (Supercoiled DNA) was “more potent DNA cleavage than KeAZB002”.
Work on C#CC[n+]1ccccc1CCc1ccccc1 [drawing 133] yielded an IC50 (A549 cancer cells) of 11 µM and an IC50 (MCF-7 cancer cells) of 23 µM.
C#CC[n+]1ccccc1C#C [drawing 132] gave an IC50 (A549 cancer cells) of 21 µM and an IC50 (MCF-7 cancer cells) of 63 µM.
With C#CC[n+]1c(-c2ccccc2)c(-c2ccccc2)n(C)c1C#Cc1ccccc1 the “Stability in MeOH” value [1] was over 1440 min, the “DNA Cleavage 100 μM” value (supercoiled plasmid DNA) was 1.4% and the “DNA Cleavage 1 mM” value (supercoiled plasmid DNA) was 10%.
In the case of C#CC[n+]1ccccc1C#C[Si](C)(C)C [1-prop-2-ynyl-2[(trimethyl-silanyl)-ethynyl]-pyridinium triflate], the “Normalized Percent Cleavage” value ([2]; 1 μM) is reported as 9%, the “Normalized Percent Cleavage” value ([2]; 10 μM) is reported as 34% and the “Normalized Percent Cleavage” value ([2]; 50 μM) is reported as 73%. For the same compound, the “Normalized Percent Cleavage” value ([2]; 100 μM) was 89%.
In the case of C(#Cc1nc2ccccc2s1)c1ccccc1, the “Stability in MeOH” value [1] is reported as over 1440 min and the “DNA Cleavage 1 mM” value (supercoiled plasmid DNA) is reported as 5%.
For Cn1c(C#Cc2ccccc2)[n+](CC#Cc2ccccc2)c2ccccc21.F[B-](F)(F)F [KeAZB002, N-phenylpropargyl-N-methyl-2-phenylethynylbenzimidazolium tetrafluoroborate], the “in vitro cytotoxicity (in words)” value [3] was “shows activity against several tumor cell lines in vitro; also recorded: cytotoxic to a variety of cancer cell types”, the “DNA cleavage (in words)” value (Supercoiled DNA) was “cleaves DNA at micromolar concentrations; also recorded: cleaves the DNA, producing frank single strand breaks; also recorded: strongly temperature dependent” and the “stability in basic aqueous solution” value ([4]; basic aqueous solution) was “undergoes a series of reactions”. For the same compound, the stability in water ([4]; water at neutral pH) was “stable indefinitely”, the “antitumor activity in vivo (in words)” value [5] was “demonstrates antitumor activity in vivo; also recorded: modest antitumor activity” and the tumor weight ([5]; seventeen days, versus control) was “decreased consistently in comparison to control”.
With C#CC[n+]1c(C#Cc2ccc(C)cc2)sc2ccccc21 the “Stability in MeOH” value [1] was 20 to 30 min and the “DNA Cleavage 1 mM” value (supercoiled plasmid DNA) was 100%.
